# Source: BindingDB's records for PubMed 8863838 (Upr Centre, 1996)
# What was measured:
# [1] = target: Metabotropic glutamate receptor 4 (Rattus norvegicus, UniProt P31423)
# [2] = target: Metabotropic glutamate receptor 2 (Homo sapiens, UniProt Q14416)
# Sequence of Metabotropic glutamate receptor 2 (Q14416 whole entry): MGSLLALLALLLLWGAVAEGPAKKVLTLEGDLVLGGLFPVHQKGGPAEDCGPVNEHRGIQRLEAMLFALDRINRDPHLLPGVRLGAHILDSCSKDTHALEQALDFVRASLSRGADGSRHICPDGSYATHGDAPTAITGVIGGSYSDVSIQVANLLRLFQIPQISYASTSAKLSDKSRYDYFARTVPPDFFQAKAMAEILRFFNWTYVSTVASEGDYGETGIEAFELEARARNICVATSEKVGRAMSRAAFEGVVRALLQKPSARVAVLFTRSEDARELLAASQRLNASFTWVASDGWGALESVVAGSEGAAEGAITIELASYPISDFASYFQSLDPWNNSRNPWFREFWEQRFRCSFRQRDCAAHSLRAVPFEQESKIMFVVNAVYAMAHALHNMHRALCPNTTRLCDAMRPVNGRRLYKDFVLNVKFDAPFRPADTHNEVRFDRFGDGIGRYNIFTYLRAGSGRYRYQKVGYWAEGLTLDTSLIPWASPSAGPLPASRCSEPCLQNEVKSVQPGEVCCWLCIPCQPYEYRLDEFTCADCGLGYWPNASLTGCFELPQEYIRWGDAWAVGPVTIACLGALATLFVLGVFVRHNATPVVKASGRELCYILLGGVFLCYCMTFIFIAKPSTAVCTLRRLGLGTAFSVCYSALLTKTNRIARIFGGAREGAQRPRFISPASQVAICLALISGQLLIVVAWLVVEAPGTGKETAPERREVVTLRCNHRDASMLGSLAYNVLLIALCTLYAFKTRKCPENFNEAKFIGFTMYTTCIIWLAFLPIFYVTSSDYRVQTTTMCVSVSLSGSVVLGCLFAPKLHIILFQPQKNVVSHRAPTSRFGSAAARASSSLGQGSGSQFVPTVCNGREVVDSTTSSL
# Sequence of Metabotropic glutamate receptor 4 (P31423 whole entry): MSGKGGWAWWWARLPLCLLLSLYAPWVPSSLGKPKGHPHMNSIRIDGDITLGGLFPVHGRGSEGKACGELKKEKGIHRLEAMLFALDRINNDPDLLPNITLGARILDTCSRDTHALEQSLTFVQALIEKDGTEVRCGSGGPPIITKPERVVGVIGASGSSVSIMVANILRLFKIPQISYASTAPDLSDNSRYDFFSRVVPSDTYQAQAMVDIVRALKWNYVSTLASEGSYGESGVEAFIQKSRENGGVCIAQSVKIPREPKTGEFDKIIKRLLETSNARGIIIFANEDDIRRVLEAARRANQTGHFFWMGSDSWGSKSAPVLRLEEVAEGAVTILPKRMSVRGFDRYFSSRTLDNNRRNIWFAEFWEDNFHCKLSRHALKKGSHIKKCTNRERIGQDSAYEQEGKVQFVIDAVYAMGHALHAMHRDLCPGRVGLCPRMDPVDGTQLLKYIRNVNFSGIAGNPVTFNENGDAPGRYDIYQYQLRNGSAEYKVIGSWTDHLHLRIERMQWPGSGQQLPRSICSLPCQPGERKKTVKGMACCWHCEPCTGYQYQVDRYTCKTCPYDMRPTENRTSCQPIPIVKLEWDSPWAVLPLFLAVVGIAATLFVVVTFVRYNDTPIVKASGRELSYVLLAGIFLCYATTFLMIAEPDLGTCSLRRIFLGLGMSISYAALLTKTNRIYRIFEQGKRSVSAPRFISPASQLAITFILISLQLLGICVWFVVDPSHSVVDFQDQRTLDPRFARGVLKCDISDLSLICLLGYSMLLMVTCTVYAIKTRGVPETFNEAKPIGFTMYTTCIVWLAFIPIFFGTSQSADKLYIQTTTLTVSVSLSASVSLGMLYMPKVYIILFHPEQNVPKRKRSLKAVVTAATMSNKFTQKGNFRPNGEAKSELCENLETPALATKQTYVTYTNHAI
Structure (SMILES),Ki [1] [µM],Ki [2] [µM]
N[C@@H](COP(=O)(O)O)C(=O)O,2.3,–
N[C@@H](CCP(=O)(O)O)C(=O)O,0.4,–
NC(C(=O)O)c1ccc(C(=O)O)c(O)c1 (stereo not drawn),–,> 10
CC(N)(C(=O)O)c1ccc(P(=O)(O)O)cc1 (stereo not drawn),> 10,> 10
C[C@@](N)(C(=O)O)c1ccc(C(=O)O)cc1 (racemic),–,> 10
"N[C@@]1(C(=O)O)CC[C@H](C(=O)O)C1 [1S, 3R-ACPD]",> 10,> 10
"N[C@@H](Cn1oc(=O)[nH]c1=O)C(=O)O [2-amino-3-(3,5-dioxo[1,2,4]oxadiazolidin-2-yl)propionic acid]",> 10,> 10
NC(C(=O)O)c1ccc(C(=O)O)cc1 (stereo not drawn) [4-(Amino-carboxy-methyl)-benzoic acid],–,> 10
"N[C@H](C(=O)O)[C@H]1C[C@@H]1C(=O)O [(1S,2S)-2-((S)-Amino-carboxy-methyl)-cyclopropanecarboxylic acid]",8.9,0.49
"N[C@@]1(C(=O)O)CC[C@H](CC(=O)O)C1 [(1S,3S)-HOMO-ACPD]",> 10,> 10
NC(C(=O)O)c1cc(=O)[nH]o1 (stereo not drawn) [Amino-(3-hydroxy-isoxazol-5-yl)-acetic acid(Ibotenic acid)],> 10,–
N[C@@H](CCC(=O)O)C(=O)O [L-Glutamic acid],> 10,–
C[C@](N)(C(=O)O)C1C[C@@H]1C(=O)O (stereo partly drawn) [MCCG-I],–,> 10
CC(N)(CCP(=O)(O)O)C(=O)O (stereo not drawn) [NSC_1795545],> 10,> 10
CC(N)(C(=O)O)c1ccc(S(=O)(=O)O)cc1 (stereo not drawn) [NSC_3964410],> 10,> 10
CC(N)(C(=O)O)c1ccc(-n2cnnn2)cc1 (stereo not drawn) [NSC_5311456],–,> 10
